Data set [1] can be described thus: activity coefficient (dimensionless); of the first substance listed, at infinite dilution; xn = mol fraction of the nth substance listed. The note with it: 101 kPa, Liquid, dilutor technique, x1 = 0.
The conditions of data set [2]: Liquid, Closed cell (Static) method.

The structures appear in SMILES notation. Numbers after ± are expanded uncertainties.

On to `CSC` [2-thiapropane] + C=CCCCC, for which the activity coefficient came out at 1.77 ± 0.68 in data set [1] (288.15 K), 1.71 ± 0.52 in data set [1] (298.15 K) and 1.64 ± 0.46 in data set [1] (303.15 K).

Consider `CSC` [2-thiapropane] + CC(C)CC(C)(C)C, for which the activity coefficient in data set [1] (288.15 K) came to 1.77 ± 0.7; in data set [1] (298.15 K) it was 1.72 ± 0.54; in data set [1] (303.15 K), 1.67 ± 0.3.

The vapor or sublimation pressure is the equilibrium pressure above the liquid or solid. `CCC` [propane]: the “vapor or sublimation pressure” value is 852.6 ± 2.3 kPa in data set [2] (293.94 K), 853.1 ± 2.3 kPa in data set [2] (293.97 K), 1358.5 ± 2.8 kPa in data set [2] (312.85 K) and 1361.3 ± 2.8 kPa in data set [2] (312.87 K).

In the case of `CSC` [2-thiapropane], the “vapor or sublimation pressure” value in data set [2] (293.94 K) came out at 53.2 ± 1.2 kPa; in data set [2] (312.86 K), 108.8 ± 1.2 kPa.

Regarding `C1CCSC1` [tetrahydrothiophene], the “vapor or sublimation pressure” value in data set [2] (293.97 K) is on record as 2.1 ± 1.2 kPa; in data set [2] (312.87 K), 5.9 ± 1.2 kPa.

As for `CSC` [2-thiapropane] + C=C(C)CC(C)(C)C, the activity coefficient in data set [1] (288.15 K) was 1.5 ± 0.66; in data set [1] (298.15 K), 1.45 ± 0.52; in data set [1] (303.15 K), 1.4 ± 0.44.

On to `CSC` [2-thiapropane] + CCCCCC, for which the activity coefficient is 2.16 ± 0.9 in data set [1] (288.15 K), 2.04 ± 0.78 in data set [1] (293.15 K), 1.95 ± 0.68 in data set [1] (298.15 K) and 1.91 ± 0.6 in data set [1] (303.15 K).

The values above are taken from the NIST ThermoML archive (doi:10.1016/j.fluid.2010.03.027).
